Patent publication US11266645B2, “Methods for treating lymphoma” (Alexion Pharmaceuticals, Inc., priority 2018, dated 2022)

Assays:
[1] = system: Follicular lymphoma (FL) cell lines SU-DHL6, DOHH2, WSU-FSCCL; test: FL cell line assays (CellTiter Glo, Edu, caspase 3, immunoblot, phosphoflow); format: cell-based, human
Procedure: CellTiter Glo, Edu and caspase 3 assays were used to examine the effects of cerdulatinib alone and in combination with venetoclax. Percent inhibition was determined relative to vehicle control. Edu incorporation and caspase 3 cleavage were performed using FACS-based assays and CellTiter Glo in a 96-well black plate.
Follicular lymphoma (FL) cell lines SU-DHL6, DOHH2, or WSU-FSCCL were treated with cerdulatinib in the presence or absence of venetoclax at the indicated concentrations for 24-72 hours and analyzed by Edu, CellTiter-Glo, Annexin V/PI, and CellTiter-Glo).
Whole cell lysates were subjected to immunoblotting on 12% gels and probed with the indicated antibodies using established protocols. Phosphoflow cytometry was performed on an LSRII following cell fixing in 4% PFA and permeabilzation with 50% methanol. Phospho-antibody staining was performed for 1 hour at room temperature.

[2] = Blood absolute lymphocyte counts (ALC); format: in vivo, human; details: 5 CLL/SLL patients
Excerpt: Treatment-related increases in blood absolute lymphocyte counts (ALC) occurred in both CLL/SLL and FL patients (FIG. 6A and FIG. 6B). Of the 6 CLL/SLL patients treated with cerdulatinib, 5 remained on drug long enough to monitor ALC, which were elevated 0.3-10 fold relative to pre-treatment. For two of these patients, treatment-related changes in tumor cell surface activation and homing markers were additionally evaluated (FIG. 7A and FIG. 7B). As shown in the ALC plots over time (FIG. 6A and FIG. 6B), by the beginning of the second cycle of treatment (Cycle 2 Day 1; C2D1) there was considerable mobilization of tumor cells into the peripheral blood.

[3] = system: patients with relapsed/refractory Follicular Lymphoma; details: r/r FL, single agent; cited from earlier work
[4] = system: patients with relapsed/refractory Follicular Lymphoma; test: Phase 2a dose expansion study in relapsed/refractory follicular lymphoma, single agent and with rituximab; format: in vivo, human
Procedure: Methods: This is a phase 2a dose expansion study was carried out with cerdulatinib dosed 30 mg orally BID in patients with relapsed/refractory (r/r) B cell lymphoma. Dose reductions were permitted to a minimum of 15 mg BID. Responses of patients to the cerdulatinib treatment and cerdulatinib rituximab combination treatment were assessed by Lugano Classification criteria.
A total of 40 patients were enrolled in the single arm, cerdulatinib treatment cohort and 11 patients were enrolled in the cerdulatinib rituximab combination cohort. Median age was 64 (42-81) and median number of prior therapies was three (1-8). 50 (98%) patients had prior anti-CD20 therapy and 8 (16%) patients had prior PI3K or BTK inhibitors. The most common adverse effects (AEs) of any grade were diarrhea (47%), nausea (37%), lipase increase (29%) and amylase increase (22%). Grade 3+ AEs occurring in more than 5% patients are lipase increase (24%), diarrhea (12%), amylase increase (10%), nausea (8%), hypertension (8%), and neutropenia (6%). Grade 3+ infections occurred in 6 (12%) of patients. One patient had Grade 5 multi-organ failure potentially related to study drug. Amylase and lipase elevations generally were not associated with abdominal pain or pancreatitis. The safety profile in the combination cohort appeared to be similar to what is seen with single-agent cerdulatinib.

[5] = single arm cohort, out of 40 patients

## CCS(=O)(=O)N1CCN(c2ccc(Nc3ncc(C(N)=O)c(NC4CC4)n3)cc2)CC1 [cerdulatinib, 4-(cyclopropylamino)-2-((4-(4-(ethylsulfonyl)piperazin-1-yl)phenyl)amino)pyrimidine-5-carboxamide]
[1]; FL cell lines
  basal expression of phospho (p)AKT and pERK, anti-IgM and anti-IgG mediated signaling: inhibit
[1]; FL lines
  Bcl-2 expression: minimal impact
[1]; WSU and DHL6 cells
  Bim RNA level: increased
[1]; cerdulatinib alone
  Mcl-1 RNA levels: remained unchanged
[1]; most pronounced in WSU-FSCCL cells
  Mcl-1 expression: down modulation
[2]
  ALC elevation relative to pre-treatment: 0.3-10 fold
[3]
  ORR, previously reported: ~45%
[4]; r/r FL, both cohorts together
  AEs of any grade: amylase increase: 22%
  AEs of any grade: lipase increase: 29%
  AEs of any grade: nausea: 37%
  Grade 3+ AEs: amylase increase: 10%
  Grade 3+ AEs: diarrhea: 12%
  Grade 3+ AEs: hypertension: 8%
  Grade 3+ AEs: lipase increase: 24%
  Grade 3+ AEs: nausea: 8%
  Grade 3+ AEs: neutropenia: 6%
  Grade 3+ infections: 12%
  patients with Grade 5 multi-organ failure potentially related to study drug: One
[4]; r/r FL, single-agent and rituximab combination cohorts together
  AEs of any grade: diarrhea: 47%
[4]; single arm cohort, 40 patients
  ORR: 46%
[4]; [5]
  CRs, number of patients: 5
  PRs, number of patients: 13
